Tests used:
Botrytis cinerea [1] = assay: Eggplant grey mold; assay type: in vivo; parameters: scale not given here; conditions: inoculated 24 h later, rated after 3-4 days; for Disease Control Rating at 20 ppm: eggplant sprayed with 20 ppm; for Disease Control Rating at 100 ppm: eggplant sprayed with 100 ppm; for Disease Control Rating at 500 ppm: eggplant sprayed with 500 ppm
In short: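 Protective test: compound formulations (2:3 acetone:water, 0.5% Tween 20; 500, 100 or 20 ppm) sprayed on 14-18-day-old plants, with spore inoculum (4×10^6 spore/mL) applied a day later. Disease control rated on Botrytis lesions after 3-4 days at 23 °C and 100% humidity.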

Botrytis cinerea [2] = assay: Vine grey mold (grape berries); assay type: in vivo; conditions: average of six berries, 7-10 days; for pest or weed control at 50 ppm: grape berries treated with 50 ppm, read-out: % DISEASE CONTROL 50 ppm; for pest or weed control at 200 ppm: grape berries treated with 200 ppm, read-out: % DISEASE CONTROL 200 ppm
In short: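 Preventive berry test: compound at 50 or 200 ppm (acetone/water, 0.05% Tween 20) applied one day before inoculation with 10^6 spores/mL Botrytis conidia. After 7-10 days at 20 °C under 12 h light, infected surface area rated; disease control expressed as percent reduction from control mean; repeated-test values averaged.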

Rhizoctonia solani = assay: Rice sheath blight; assay type: in vivo; parameters: scale not given here; conditions: inoculated two days later, rated after 7 days, average of five plants; for Disease Control Rating at 0.02 mg/mL: foliage and soil sprayed with 0.02 mg/mL; for Disease Control Rating at 0.1 mg/mL: foliage and soil sprayed with 0.1 mg/mL; for Disease Control Rating at 0.5 mg/mL: foliage and soil sprayed with 0.5 mg/mL
In short: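 Preventive test: R. solani inoculum on rice grain was applied at the plant base two days after spraying foliage and soil with Compound A (0.5, 0.1 or 0.02 mg/mL, water/acetone/Tween 20). Plants aged 11–15 days stood in flood trays; after 7 days at 25 °C and high humidity, disease control was rated against untreated plants, five plants averaged.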

succinate dehydrogenase = biological target: T1, succinate dehydrogenase (Botrytis cinerea, UniProt A0A384J5E4+A0A384J8V8+A0A384JHJ5); assay: Enzyme inhibition: succinate dehydrogenase activity in Botrytis cinerea mitochondria (DCPIP reduction); assay type: biochemical; conditions: concentration required to inhibit the rate of DCPIP reduction by 50%; Botrytis cinerea isolate Nick mitochondria; read-out: I50 (μM conc.)
T1 construct: succinate-DCPIP reductase assay with KCN
T1 sequence (A0A384J5E4 1-300): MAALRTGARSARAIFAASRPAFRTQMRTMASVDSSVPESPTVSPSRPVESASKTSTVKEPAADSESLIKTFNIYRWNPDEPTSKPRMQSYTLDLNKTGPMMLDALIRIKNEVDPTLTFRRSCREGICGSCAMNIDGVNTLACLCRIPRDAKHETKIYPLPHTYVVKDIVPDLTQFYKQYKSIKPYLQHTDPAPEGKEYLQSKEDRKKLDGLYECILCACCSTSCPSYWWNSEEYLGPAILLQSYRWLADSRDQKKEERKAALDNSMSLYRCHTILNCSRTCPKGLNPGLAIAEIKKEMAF
T1 sequence (A0A384J8V8 1-189): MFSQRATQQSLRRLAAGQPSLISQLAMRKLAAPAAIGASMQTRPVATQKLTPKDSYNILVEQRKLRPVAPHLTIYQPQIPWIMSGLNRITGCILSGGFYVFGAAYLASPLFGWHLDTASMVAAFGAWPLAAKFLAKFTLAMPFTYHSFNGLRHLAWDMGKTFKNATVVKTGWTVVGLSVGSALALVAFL
T1 sequence (A0A384JHJ5 1-192): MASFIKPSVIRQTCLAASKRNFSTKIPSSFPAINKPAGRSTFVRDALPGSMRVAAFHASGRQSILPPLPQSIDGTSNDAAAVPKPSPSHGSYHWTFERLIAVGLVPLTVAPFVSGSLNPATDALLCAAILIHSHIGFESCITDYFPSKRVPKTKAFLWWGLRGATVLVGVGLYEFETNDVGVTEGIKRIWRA
T1 sequence (A0A384K456 1-647 partner): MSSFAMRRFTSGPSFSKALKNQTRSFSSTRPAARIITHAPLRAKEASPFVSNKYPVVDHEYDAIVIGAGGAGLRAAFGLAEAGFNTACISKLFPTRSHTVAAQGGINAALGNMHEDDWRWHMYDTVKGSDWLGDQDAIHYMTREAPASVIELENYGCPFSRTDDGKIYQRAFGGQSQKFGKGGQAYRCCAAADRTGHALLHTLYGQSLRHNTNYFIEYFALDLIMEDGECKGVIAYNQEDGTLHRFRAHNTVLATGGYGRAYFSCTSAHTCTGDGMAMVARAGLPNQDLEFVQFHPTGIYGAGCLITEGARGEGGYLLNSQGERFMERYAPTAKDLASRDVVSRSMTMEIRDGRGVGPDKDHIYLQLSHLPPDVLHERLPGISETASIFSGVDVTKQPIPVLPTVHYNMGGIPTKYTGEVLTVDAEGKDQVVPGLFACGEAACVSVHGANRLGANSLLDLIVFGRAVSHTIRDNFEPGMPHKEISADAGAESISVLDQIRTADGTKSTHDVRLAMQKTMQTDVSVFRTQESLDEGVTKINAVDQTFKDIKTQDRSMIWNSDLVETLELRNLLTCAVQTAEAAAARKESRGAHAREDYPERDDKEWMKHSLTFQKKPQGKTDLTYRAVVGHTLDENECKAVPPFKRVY
In short: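 DCPIP (45 μM) reduction at 600 nm tracked with 17 mM succinate, 1 mM KCN and 50 mM potassium phosphate, pH 7.2. Compounds were added in acetone (final 1% v/v), and Botrytis cinerea isolate Nick mitochondrial fraction initiated the reaction. Rates minus endogenous activity gave percentage inhibition, plotted semilog against concentration to derive I50 (μM).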

SMILES	Disease Control Rating at 20 ppm (Botrytis cinerea [1])	Disease Control Rating at 100 ppm (Botrytis cinerea [1])	Disease Control Rating at 500 ppm (Botrytis cinerea [1])	pest or weed control at 50 ppm (Botrytis cinerea [2]) [%]	pest or weed control at 200 ppm (Botrytis cinerea [2]) [%]	Disease Control Rating at 0.02 mg/mL (Rhizoctonia solani)	Disease Control Rating at 0.1 mg/mL (Rhizoctonia solani)	Disease Control Rating at 0.5 mg/mL (Rhizoctonia solani)	IC50 (succinate dehydrogenase) [µM]
Cn1cc(C(=O)Nc2ccc(F)cc2C2CCCCC2)c(C(F)F)n1 [Example 11, 1H-pyrazole-4-carboxamide, N-(2-cyclohexyl-4-fluorophenyl)-3-(difluoromethyl)-1-methyl-]	2	2	3	75	92	1	3	3	0.0054
Cn1cc(C(=S)Nc2ccccc2C2CCCCC2)c(C(F)F)n1 [Example 77, 1H-pyrazole-4-carbothioamide, N-(2-cyclohexylphenyl)-3-(difluoromethyl)-1-methyl]	0	1	2	85	82	–	–	0	22
COc1cccc(NC(=O)c2cn(C)nc2C(F)(F)F)c1C1CCCCCCC1 [Example 37, 1H-pyrazole-4-carboxamide, N-(2-cyclooctyl-3-methoxyphenyl)-1-methyl-3-(trifluoromethyl)-]	0	0	2	25	54	3	3	3	0.0048
CC1CC=C(c2ccccc2NC(=O)c2cn(C)nc2C(F)(F)F)C1 (stereo not drawn) [Example 150, 1H-pyrazole-4-carboxamide, N-[2-(4-methyl-1-cyclopenten-1-yl)phenyl]-1-methyl-3-(trifluoromethyl)-]	0	0	2	40	100	–	–	3	0.026
Cn1cc(C(=O)Nc2ccccc2OCCC2CCCC2)c(C(F)F)n1 [Example 54, 1H-pyrazole-4-carboxamide, N-[2-(2-cyclopentylethoxy)phenyl]-3-(difluoromethyl)-1-methyl-]	–	–	0	2	2	–	–	2	0.011
Cn1cc(C(=O)Nc2ccccc2C2CCCCCCC2)c(I)n1 [Example 68, 1H-pyrazole-4-carboxamide, N-(2-cyclooctylphenyl)-3-iodo-1-methy1-]	–	–	1	78	89	2	3	3	0.0037
C[C@@H]1CCC[C@H](C)[C@@H]1Oc1ccccc1NC(=O)c1cn(C)nc1C(F)(F)F [Example 74, 1H-pyrazole-4-carboxamide, 1-methyl-N-[2-[(2,6-dimethylcyclohexyl)oxy]phenyl]-3-(trifluoromethyl)-, (lalpha,2alpha,6alpha)-]	0	0	1	4	0	–	–	0	0.09
Cn1cc(C(=O)Nc2ccccc2C2=CC(C)(C)CC(C)(C)C2)c(C(F)F)n1 [Example 121, 1H-pyrazole-4-carboxamide, 3-(difluoromethyl)-1-methyl-N-[2-(3,3,5,5-tetramethyl-1-cyclohexen-1-yl)phenyl]-]	0	0	1	33	64	1	3	3	0.0069
C[C@H]1CCC[C@H](c2ccccc2NC(=O)c2cn(C)nc2C(F)(F)F)C1 (relative stereo) [Example 70, 1H-pyrazole-4-carboxamide, 1-methyl-N-[2-(3-methylcyclohexyl)-phenyl]-3-(trifluoromethyl)-, trans-]	1	2	3	97	96	–	–	0	0.012
Cn1cc(C(=O)Nc2ccccc2C2CCCCC2)c(Br)n1 [Example 5, 1H-pyrazole-4-carboxamide, 3-bromo-N-(2-cyclohexylphenyl)-1-methyl-]	1	3	3	50	40	–	–	0	0.0066
Cn1cc(C(=O)Nc2ccccc2O[C@@H]2C[C@H]3CC[C@@H]2C3)c(C(F)F)n1 (relative stereo) [Example 80, 1H-pyrazole-4-carboxamide, N-[2-(bicyclo[2.2.1]hept-2-yloxy)-phenyl]-3-(difluoromethyl)-1-methyl-, exo-]	–	–	0	0	0	2	3	3	0.083
Cn1cc(C(=O)Nc2ccccc2C2CCCCC2)c(C(F)(F)F)n1 [Example 2, 1H-pyrazole-4-carboxamide, N-(2-cyclohexylphenyl)-1-methyl-3-(trifluoromethyl)-]	1	3	3	84	87	3	3	3	0.012
Cn1cc(C(=O)Nc2ccccc2C2(C)CCCC2)c(C(F)F)n1 [Example 83, 1H-pyrazole-4-carboxamide, 3-(difluoromethyl)-1-methyl-N-[2-(1-methylcyclopentyl)phenyl]-]	0	0	2	56	55	3	3	3	0.13
Cn1cc(C(=S)Nc2ccccc2C2CCCCCC2)c(C(F)(F)F)n1 [Example 78, 1H-pyrazole-4-carbothioamide, N-(2-cycloheptylphenyl)-3-(trifluoromethyl)-1-methyl]	1	1	2	35	35	–	–	0	8.7
Cn1cc(C(=O)Nc2ccccc2C2=CCSCC2)c(C(F)F)n1 [Example 144, 1H-pyrazole-4-carboxamide, 3-(difluoromethyl)-N-[2-(5,6-dihydro-2H-thiopyran-4-yl)phenyl]-1-methyl-]	0	0	1	15	37	–	–	3	0.037
Cn1cc(C(=O)Nc2ccccc2CC2CCCC2)c(C(F)(F)F)n1 [Example 142, 1H-pyrazole-4-carboxamide, N-[2-(cyclopentylmethyl)phenyl]-1-methyl-3-(trifluoromethyl)-]	0	1	1	0	18	–	–	3	0.22
CCC1CC=C(c2ccccc2NC(=O)c2cn(C)nc2C(F)F)CC1 (stereo not drawn) [Example 125, 1H-pyrazole-4-carboxamide, 3-(difluoromethyl)-N-[2-(4-ethyl-1-cyclohexen-1-yl)phenyl]-1-methyl-]	2	1	2	88	93	2	2	3	0.005
